Data: a melting point compilation (Tetko et al.; mined from patent text by program, amines drawn as free bases though some values may be those of a salt)

melting point	SMILES
119 to 120 °C	COc1ccc2c(c1)OCC(c1ccc(C(F)(F)F)cc1)C2c1ccc(OCCN2CCCC2)cc1 (stereo not given)
83 to 85 °C	CC(=O)SCC(Cc1ccccc1)C(=O)NC(C)(C)C(=O)OCc1ccccc1 (stereo not given)
130 to 131 °C	CNC(=O)CCCCN1CCC(C(O)(c2ccc(F)cc2)c2ccc(F)cc2)CC1
160 to 162 °C	Nc1cccc(S(=O)(=O)NC(=O)c2ccccc2)c1
> 270 °C	COC(=O)/C=C/c1ccc(-c2nc3c(=O)n(CC4CCCCC4)c(=O)n(CC4CCCCC4)c3[nH]2)cc1
97 to 100 °C	Cc1ccc(CCc2ccccc2)c(OCC[C@@H]2C[C@@H](O)CN2C)c1
231 to 233 °C	O=C(NCC(=O)N1c2ccccc2N(Cc2ccccc2)C(=O)[C@H]2CCC[C@H]21)c1ccc([N+](=O)[O-])cc1 (relative stereo)
197 to 199 °C	Ic1ccc2c(c1)ncn2-c1cccc(-c2cncnc2)c1
155 to 158 °C	Nc1nc(Cl)c2ncn(OCC(O)CO)c2n1 (stereo not given)
> 188 °C	O=C(O)c1cc(NCc2ccc(C(F)(F)F)cc2)ccc1O
138 to 139 °C	CC(C)(C)OC(=O)N1CCC2(CC1)CC(=O)N(OCC#N)C2=O
218 to 220 °C	CC(C)Cn1cnc2c(N)nc3cc(Br)ccc3c21
156 °C	COC(=O)C=Cc1ccc(C(=O)O)s1
352 to 355 °C	O=C(O)c1ccc2c(c1)S(=O)(=O)c1ccc(Cl)cc1C2=O
102 to 107 °C	CCC(c1oc2ccccc2c(=O)c1-c1cccc(F)c1)n1cnc2c(N)ncnc21 (stereo not given)
85 to 89 °C	CC(=O)OC1CSC(Oc2cccnc2C(=O)N(C)C)C(OC(C)=O)C1OC(C)=O (stereo not given)
171 °C	CCc1n[nH]c(=O)n1N
90 to 91 °C	CC(=O)COc1ccc(Cl)cc1C(=O)O
280 to 283 °C	CC1=Nc2c(C)nn(C)c2C2=NCC(C)(C)N12
136 to 139 °C	Nc1nc(Cl)cc(NCC2(CO)CC(O)C2)n1 (stereo not given)
174 to 176 °C	O=C(CCCCCCCNC(=O)c1cn2c3c(cccc13)CCC2)NO
130 to 132 °C	CCOc1nc(OCC)c([N+](=O)[O-])c(N2CCS(=O)CC2)n1
108 to 109 °C	COC(=O)c1cccc(/C=C/c2ccccc2)c1
178 to 180 °C	C#CCOc1ccc2c(Cl)nnc(C)c2c1
103 to 105 °C	CC(C)(C)OC(=O)NCC(O)c1ccsc1 (stereo not given)

melting point	SMILES
99 °C	CCOC(=O)C(C#N)=Cc1cc(Oc2c(Cl)cc(C(F)(F)F)cc2Cl)ccc1[N+](=O)[O-]
252 to 254 °C	Cc1oc2cc(C3CC(=O)NC(=O)C3)ccc2c1C
115 to 116 °C	COCOCCCOn1cnc2cnc(NC=O)nc21
71 to 72 °C	O=C(F)N(SN1CCOCC1)c1ccccc1
107 °C	COc1ccc(C(=C2CCCCC2)c2ccc(OC)c(OC)c2)cc1OC
230 to 232 °C	CC(=O)NC[C@H]1CN(c2ccc(C(=O)c3cnc4ccc(Br)cn34)cc2)C(=O)O1
186 to 188 °C	Cc1nnc2sc3cc(Cl)ccc3n12
298 to 301 °C	CC(=O)Nc1cccc(-c2nn3cnnc3cc2C)c1
230 to 232 °C	CC(C)NC(=O)c1ccn2nc(-c3ccccc3)c(-c3ccc(=O)n(C(C)C)n3)c2c1
145 to 147 °C	Cc1ccc2c(c1)OC1(O)c3ccccc3C(=O)C21O (stereo not given)
224 to 226 °C	O=C(O)C1=Cc2cccc(Cl)c2OC1C(F)(F)F (stereo not given)
147 to 150 °C	CCCCc1nc2c(N)nc3ccc(OCCC4CCN(C(=O)C5CCCC5)CC4)cc3c2n1C
155 °C	COc1ccc(SC(C(=O)NO)c2ccccc2)cc1 (stereo not given)
116 to 118 °C	CC(C)(C=O)C(=O)C(C)(Cc1ccc(C(C)(C)C)cc1)C(=O)O (stereo not given)
> 310 °C	CCc1nc(N)nc(N)c1N1CCN(c2ccc(C#N)cc2)CC1
110 to 111 °C	O=C(NCc1ccccc1F)c1ccc2cnccc2n1
257 to 258 °C	CCc1cc(C(C)=O)c(O)c(C(=O)Nc2nnn[nH]2)c1
247 to 248 °C	CCn1cc(C(=O)C(=O)O)c2ccc(-c3ccc(C(F)(F)F)cc3)cc21
180 °C	Cn1c(Cl)c(C=C(C#N)S(C)(=O)=O)c2ccccc21
113 to 114 °C	C=C1N(Cc2ccccc2)C(=O)OC12CCN(Cc1ccccc1)CC2
151 to 153 °C	COc1cccc(/C(=C/C=C/C(=O)O)c2cccc(F)c2)c1
130 to 131 °C	O=c1[nH]c(=O)n(C2CC(OCc3ccc(F)cc3)C(CO)O2)cc1F (stereo not given)
178 °C	c1ccc(CN2CCC(=C3c4ccsc4CCn4ccnc43)CC2)cc1
240 to 241 °C	O=C(O)c1ccc2[nH]c3c(c2c1)CCCCCC3
67 to 69 °C	CC(C)(C)ONc1ccccc1

melting point	SMILES
178 °C	COC(=O)/C=C/n1cnc2ccc(C3CC3)cc2c1=O
95.5 to 96 °C	C[C@H](c1ccccc1)N1C(=O)c2c(F)c(F)c(F)c(F)c2C1=O
107 to 108 °C	COC(=O)/C(=C/C=C/c1cn(C(C)=O)c2ccccc12)OC
60 to 62 °C	CCCCS(=O)(=O)NC1Cc2ccccc2C1
214 to 215 °C	Cc1c(C)c2c(c(C)c1NC(=O)CC(C)(C)C)OCC2c1ccc(C(C)C)cc1 (stereo not given)
214 to 215 °C	COc1ccc2c(c1)sc1nc(C=O)cn12
96 °C	COc1ccc(C2(CNC(=S)NCC(C)C)OCCO2)cc1
200 to 201 °C	CN(CCNc1ccc2nc(NC(=O)c3ccc(C(C)(C)C)cc3)cn2n1)C(=O)OC(C)(C)C
194 to 195 °C	O=C(CNc1ccccc1)Nc1ccc(F)cc1C(=O)O
90 °C	CCS(=O)(=O)Nc1c(C)cccc1C
255 to 256 °C	COc1ccc(-c2c(Br)c(CN3C(=O)CCC3=O)nc3sc4c(c23)CCN(Cc2ccccc2)C4)cc1
159 to 160 °C	CCCCNC(=O)Nc1ccc(SCC)cc1C(=O)NCC1CCN(C(c2ccccc2)c2ccccc2)CC1
187 to 189 °C	COc1ccc2nc(COc3cccc(C(=O)Nc4cc(CCCS(=O)(=O)c5ccc(Cl)cc5)ccc4OCC(=O)O)c3)sc2c1
263 to 265 °C	O=[N+]([O-])c1ccc2nc(-c3ccc4c(c3)OCCO4)ncc2c1
105 to 107 °C	Nc1nc2ccccc2c2c1ncn2CCCCNC(=O)c1cccc(Oc2ccccc2)c1
112 to 113 °C	O=C(CC(C[N+](=O)[O-])c1ccccc1)c1ccc(O)cc1 (stereo not given)
85 to 87 °C	O=C(O)CCc1cc(CCNS(=O)(=O)c2ccc(Cl)cc2)cc(Cc2ccc(F)cc2)c1
45 to 47 °C	CCCCCCCCCN1C(=O)C=CC1=O
250 to 251 °C	CNC(=O)Cn1nc(-c2ccc(OC)cc2)cc(C(=O)NC)c1=O
60 to 61 °C	CCCc1nnc(Cc2ccc(N)cc2)o1
202 °C	Cc1cccc(-c2cc(C(F)(F)F)n3ncc(C#N)c3n2)c1
156 to 187 °C	CCOC(=O)c1c(Nc2ccc(Cl)cc2C)n[nH]c1C
160 to 162 °C	O=C(O)CCCNc1ccnn1-c1c(Cl)cc(C(F)(F)F)cc1Cl

SMILES	melting point
CC(=O)Nc1ccc(P(=O)(O)O)cc1	228 °C
Cc1noc(NC(=O)CCl)c1C	97 to 100 °C
